Measurements from article PMC11396751, “Design, Synthesis, and Anticancer Activity of Novel Enmein-Type Diterpenoid Derivatives Targeting the PI3K/Akt/mTOR Signaling Pathway” (Molecules, 2024).

Legend:
HepG2 cells = assay: MTT anti-proliferative assay, HepG2; format: cell-based, human; details: for IC50: Homo sapiens, HepG2, MTT, 48 h, means ± SD of three experiments; for anticancer activity in words, HepG2: HepG2 cells
Method: (§1) A series of novel enmein-type diterpenoid derivatives, 5a–m, were synthesized by introducing a side chain containing a carbamate moiety at the C-6 position of compound 4. The anticancer activities of 5a–m were tested against three human cancer cell lines and one human normal cell line by MTT assay.
(§2) Human non-small cell lung cancer cell lines (A549), human liver cancer cell lines (HepG2), human breast cancer cell lines (MCF-7), and human normal cell lines (L-02) were purchased from the cell bank of the Chinese Academy of Sciences. All cells were placed in RPMI-1640 medium (added 10% fetal bovine serum, […]) and cultured in an aseptic environment with 5% CO2 at 37 °C.
(§3) All derivatives were evaluated for their anti-proliferative activities against three cancer cell lines and one normal cell line by MTT assay. The cells in the logarithmic growth phase were inoculated into 96-well plates (3 × 10^3 cells/well) and incubated for 48 h in a sterile environment with 5% CO2 at 37 °C to make them attach via cell adhesion; then, the cells were co-incubated with target compounds for 48 h. After that, MTT solution (10 µL/well) was added to the cell culture medium to continue incubation for 4 h, following which the medium was replaced with DMSO (150 µL/well). The absorbance values at 490 nm were determined using an enzyme meter (Safire 2, Tecan, Männedorf, Switzerland) and further converted to half-inhibitory concentration values of these compounds.

L-02 cells = assay: MTT anti-proliferative assay, normal L-02 cells; format: cell-based; details: means ± SD of three experiments
Method: as §1, §2, §3

MCF-7 cells = assay: MTT anti-proliferative assay, MCF-7; format: cell-based; details: Homo sapiens, MCF7, 48 h, means ± SD of three experiments
Method: as §1, §2, §3

A549 cells = assay: MTT anti-proliferative assay, A549; format: cell-based, human; details: for IC50: Homo sapiens, A549, MTT, 48 h, means ± SD of three experiments
Method: as §1, §2, §3

C=C1C(=O)C23C(=O)OC45CCC(C)(C)C6C(OC(=O)CCC(=O)NCc7ccc(OC)cc7)OCC64C2CCC1C3O5 (single isomer, unassigned; ent-6) [Compound 7c, ent-6β,14α-Dihydroxy-(1,7–1,14)-epoxy-7,15-dioxo-6,20-hemiketal-6,7-seco-16-kaurene-6β-yl 4-((4-meth0xybenzyl)amino)-4-oxobutanoate]
IC50 (HepG2 cells): 12.8 ± 1.73 µM | IC50 (L-02 cells; Homo sapiens, L02, 48 h): 34.4 ± 4.37 µM | IC50 (MCF-7 cells): 8.35 ± 1.96 µM | IC50 (A549 cells): 8.37 ± 1.53 µM

C=C1C(=O)C23C(=O)OC45CCC(C)(C)C6C(O)OCC64C2CCC1C3O5 (single isomer, unassigned; ent-6) [Compound 4, Ent-6β,14α-Dihydroxy-(1,7–1,14)-epoxy-7,15-dioxo-6,20-hemiketal-6,7-seco-16-kaurene]
IC50 (HepG2 cells): 27.4 ± 0.83 µM | IC50 (L-02 cells; Homo sapiens, L02, 48 h): 30.2 ± 1.58 µM | IC50 (MCF-7 cells): 25.8 ± 1.14 µM | IC50 (A549 cells): 23.8 ± 1.86 µM

C=C1C(=O)C23C(=O)OC45CCC(C)(C)C6C(OC(=O)CCn7cccc7)OCC64C2CCC1C3O5 (single isomer, unassigned; ent-6) [Compound 5l, ent-6β,14α-Dihydroxy-(1,7–1,14)-epoxy-7,15-dioxo-6,20-hemiketal-6,7-seco-16-kaurene-6β-yl 3-(1H-pyrrol-1-yl) propanoate]
IC50 (HepG2 cells): 11.2 ± 1.82 µM | IC50 (L-02 cells; Homo sapiens, L02, 48 h): > 50 µM | IC50 (MCF-7 cells): 15.9 ± 1.9 µM | IC50 (A549 cells): 8.3 ± 2.55 µM

C=C1C(=O)C23C(=O)OC45CCC(C)(C)C6C(OC(=O)N(c7ccccc7)c7ccccc7)OCC64C2CCC1C3O5 (single isomer, unassigned; ent-6) [Compound 5j, ent-6β,14α-Dihydroxy-(1,7–1,14)-epoxy-7,15-dioxo-6,20-hemiketal-6,7-seco-16-kaurene-6β-yl diphenylcarbamate]
IC50 (HepG2 cells): 34.1 ± 3.52 µM | IC50 (L-02 cells; Homo sapiens, L02, 48 h): > 50 µM | IC50 (MCF-7 cells): 32.8 ± 2.95 µM | IC50 (A549 cells): 23.3 ± 2.25 µM

C=C1C(=O)C23C(=O)OC45CCC(C)(C)C6C(OC(=O)CCC(=O)NCc7ccc(Cl)cc7)OCC64C2CCC1C3O5 (single isomer, unassigned; ent-6) [Compound 7f, ent-6β,14α-Dihydroxy-(1,7–1,14)-epoxy-7,15-dioxo-6,20-hemiketal-6,7-seco-16-kaurene-6β-yl 4-((4-chlorobenzyl)amino)-4-oxobutanoate]
anticancer activity in words, HepG2 (HepG2 cells): low micro-molar-level anticancer activities | IC50 (HepG2 cells): 8.61 ± 1.14 µM | IC50 (L-02 cells; Homo sapiens, L02, 48 h): > 50 µM | IC50 (MCF-7 cells): 8.2 ± 1.21 µM | IC50 (A549 cells): 7.38 ± 0.96 µM

C=C1C(=O)C23C(=O)OC45CCC(C)(C)C6C(OC(=O)N(C)CC)OCC64C2CCC1C3O5 (single isomer, unassigned; ent-6) [Compound 5c, ent-6β,14α-Dihydroxy-(1,7–1,14)-epoxy-7,15-dioxo-6,20-hemiketal-6,7-seco-16-kaurene-6β-yl ethyl(methyl)carbamate]
IC50 (HepG2 cells): 22.5 ± 3.42 µM | IC50 (L-02 cells; Homo sapiens, L02, 48 h): > 50 µM | IC50 (MCF-7 cells): 21.9 ± 2.72 µM | IC50 (A549 cells): 20.2 ± 1.46 µM

C=C1C(=O)C23C(=O)OC45CCC(C)(C)C6C(OC(=O)N(CCCl)CCCl)OCC64C2CCC1C3O5 (single isomer, unassigned; ent-6) [Compound 5d, ent-6β,14α-Dihydroxy-(1,7–1,14)-epoxy-7,15-dioxo-6,20-hemiketal-6,7-seco-16-kaurene-6β-yl bis(2-chloroethyl) carbamate]
IC50 (HepG2 cells): 11 ± 1.45 µM | IC50 (L-02 cells; L02, human normal cells, 48 h): 30.4 ± 3.44 µM | IC50 (MCF-7 cells): 15.6 ± 1.61 µM | IC50 (A549 cells): 8.76 ± 1.56 µM

C=C1C(=O)C23C(=O)OC45CCC(C)(C)C6C(OC(=O)N7c8ccccc8Sc8ccccc87)OCC64C2CCC1C3O5 (single isomer, unassigned; ent-6) [Compound 5k, ent-6β,14α-Dihydroxy-(1,7–1,14)-epoxy-7,15-dioxo-6,20-hemiketal-6,7-seco-16-kaurene-6β-yl 10H-phenothiazine-10-carboxylate]
IC50 (HepG2 cells): 25.7 ± 2.16 µM | IC50 (L-02 cells; Homo sapiens, L02, 48 h): > 50 µM | IC50 (MCF-7 cells): 26.3 ± 2.3 µM | IC50 (A549 cells): 17.2 ± 1.43 µM

C=C1C(=O)C23C(=O)OC45CCC(C)(C)C6C(OC(=O)N7CCCCC7)OCC64C2CCC1C3O5 (single isomer, unassigned; ent-6) [Compound 5g, ent-6β,14α-Dihydroxy-(1,7–1,14)-epoxy-7,15-dioxo-6,20-hemiketal-6,7-seco-16-kaurene-6β-yl piperidine-1-carboxylate]
IC50 (HepG2 cells): 21.1 ± 2.5 µM | IC50 (L-02 cells; Homo sapiens, L02, 48 h): > 50 µM | IC50 (MCF-7 cells): 22.8 ± 2.13 µM | IC50 (A549 cells): 15.3 ± 2.4 µM

C=C1C(=O)C23C(=O)OC45CCC(C)(C)C6C(OC(=O)N7CCOCC7)OCC64C2CCC1C3O5 (single isomer, unassigned; ent-6) [Compound 5i, ent-6β,14α-Dihydroxy-(1,7–1,14)-epoxy-7,15-dioxo-6,20-hemiketal-6,7-seco-16-kaurene-6β-yl bmorpholine-4-carboxylate]
IC50 (HepG2 cells): 23.7 ± 3.4 µM | IC50 (L-02 cells; Homo sapiens, L02, 48 h): 38.1 ± 2.82 µM | IC50 (MCF-7 cells): 25.1 ± 3.34 µM | IC50 (A549 cells): 14.4 ± 1.42 µM

C=C1C(=O)C23C(=O)OC45CCC(C)(C)C6C(OC(=O)N7CCCC7)OCC64C2CCC1C3O5 (single isomer, unassigned; ent-6) [Compound 5f, ent-6β,14α-Dihydroxy-(1,7–1,14)-epoxy-7,15-dioxo-6,20-hemiketal-6,7-seco-16-kaurene-6β-yl pyrrolidine-1-carboxylate]
IC50 (HepG2 cells): 18.3 ± 1.36 µM | IC50 (L-02 cells; Homo sapiens, L02, 48 h): 45.9 ± 2.3 µM | IC50 (MCF-7 cells): 20.7 ± 1.2 µM | IC50 (A549 cells): 13.4 ± 2.19 µM

C=C1C(=O)C23C(=O)OC45CCC(C)(C)C6C(OC(=O)N(CC)CC)OCC64C2CCC1C3O5 (single isomer, unassigned; ent-6) [Compound 5b, ent-6β,14α-Dihydroxy-(1,7–1,14)-epoxy-7,15-dioxo-6,20-hemiketal-6,7-seco-16-kaurene-6β-yl diethylcarbamate]
IC50 (HepG2 cells): 15.2 ± 1.58 µM | IC50 (L-02 cells; Homo sapiens, L02, 48 h): > 50 µM | IC50 (MCF-7 cells): 17.6 ± 2.4 µM | IC50 (A549 cells): 15.8 ± 1.5 µM

C=C1C(=O)C23C(=O)OC45CCC(C)(C)C6C(OC(=O)N7CCCCCC7)OCC64C2CCC1C3O5 (single isomer, unassigned; ent-6) [Compound 5h, ent-6β,14α-Dihydroxy-(1,7–1,14)-epoxy-7,15-dioxo-6,20-hemiketal-6,7-seco-16-kaurene-6β-yl azepane-1-carboxylate]
IC50 (HepG2 cells): 20.2 ± 1.33 µM | IC50 (L-02 cells; Homo sapiens, L02, 48 h): > 50 µM | IC50 (MCF-7 cells): 24 ± 2.55 µM | IC50 (A549 cells): 18.4 ± 1.13 µM

C=C1C(=O)C23C(=O)OC45CCC(C)(C)C6C(OC(=O)CCC(=O)NCc7ccccc7)OCC64C2CCC1C3O5 (single isomer, unassigned; ent-6) [Compound 7a, ent-6β,14α-Dihydroxy-(1,7–1,14)-epoxy-7,15-dioxo-6,20-hemiketal-6,7-seco-16-kaurene-6β-yl 4-(benzylamino)-4-oxobutanoate]
IC50 (HepG2 cells): 13.8 ± 2.19 µM | IC50 (L-02 cells; L02, human normal cells, 48 h): > 50 µM | IC50 (MCF-7 cells): 10.8 ± 1.65 µM | IC50 (A549 cells): 10.2 ± 1.1 µM

C=C1C(=O)C23C(=O)OC45CCC(C)(C)C6C(OC(=O)CCC(=O)NCc7ccc(C)cc7)OCC64C2CCC1C3O5 (single isomer, unassigned; ent-6) [Compound 7b, ent-6β,14α-Dihydroxy-(1,7–1,14)-epoxy-7,15-dioxo-6,20-hemiketal-6,7-seco-16-kaurene-6β-yl 4-((4-methylbenzyl)amino)-4-oxobutanoate]
IC50 (HepG2 cells): 10.5 ± 1.68 µM | IC50 (L-02 cells; Homo sapiens, L02, 48 h): > 50 µM | IC50 (MCF-7 cells): 12.8 ± 1.64 µM | IC50 (A549 cells): 7.48 ± 1.31 µM

C=C1C(=O)C23C(=O)OC45CCC(C)(C)C6C(OC(=O)CCC(=O)NCc7ccc(Br)cc7)OCC64C2CCC1C3O5 (single isomer, unassigned; ent-6) [Compound 7g, ent-6β,14α-Dihydroxy-(1,7–1,14)-epoxy-7,15-dioxo-6,20-hemiketal-6,7-seco-16-kaurene-6β-yl 4-((4-bromobenzyl)amino)-4-oxobutanoate]
anticancer activity in words, HepG2 (HepG2 cells): low micro-molar-level anticancer activities | IC50 (HepG2 cells): 8.78 ± 1.46 µM | IC50 (L-02 cells; Homo sapiens, L02, 48 h): > 50 µM | IC50 (MCF-7 cells): 13 ± 1.52 µM | IC50 (A549 cells): 8.6 ± 2.65 µM

C=C1C(=O)C23C(=O)OC45CCC(C)(C)C6C(OC(=O)CCN7C(=O)c8ccccc8C7=O)OCC64C2CCC1C3O5 (single isomer, unassigned; ent-6) [Compound 5m, ent-6β,14α-Dihydroxy-(1,7–1,14)-epoxy-7,15-dioxo-6,20-hemiketal-6,7-seco-16-kaurene-6β-yl 3-(1,3-dioxoisoindolin-2-yl) propanoate]
IC50 (HepG2 cells): 10.9 ± 1.25 µM | IC50 (L-02 cells; Homo sapiens, L02, 48 h): 32.5 ± 1.62 µM | IC50 (MCF-7 cells): 12.3 ± 1.11 µM | fold better than parental compound 4 (A549 IC50) (A549 cells; A549 cells): 3.48 fold | IC50 (A549 cells): 6.85 ± 1.68 µM

C=C1C(=O)C23C(=O)OC45CCC(C)(C)C6C(OC(=O)N(C)C)OCC64C2CCC1C3O5 (single isomer, unassigned; ent-6) [Compound 5a, ent-6β,14α-Dihydroxy-(1,7–1,14)-epoxy-7,15-dioxo-6,20-hemiketal-6,7-seco-16-kaurene-6β-yl dimethylcarbamate]
IC50 (HepG2 cells): 17.1 ± 1.39 µM | IC50 (L-02 cells; Homo sapiens, L02, 48 h): > 50 µM | IC50 (MCF-7 cells): 30.7 ± 1.16 µM | IC50 (A549 cells): 14.7 ± 1.54 µM

C=C1C(=O)C23C(=O)OC45CCC(C)(C)C6C(OC(=O)CCC(=O)NCc7ccc(F)cc7)OCC64C2CCC1C3O5 (single isomer, unassigned; ent-6) [Compound 7e, ent-6β,14α-Dihydroxy-(1,7–1,14)-epoxy-7,15-dioxo-6,20-hemiketal-6,7-seco-16-kaurene-6β-yl 4-((4-fluorobenzyl)amino)-4-oxobutanoate]
IC50 (HepG2 cells): 11.6 ± 1.34 µM | IC50 (L-02 cells; Homo sapiens, L02, 48 h): > 50 µM | IC50 (MCF-7 cells): 9.85 ± 1.53 µM | IC50 (A549 cells): 7.12 ± 1.52 µM
